Assay: Fatty acid composition of pig tissues (ham, loin, belly, skin) after feeding SDA ethyl ester diets, 35 day study
Type: in vivo, pigs
Procedure: A 35 day study was conducted to determine whether pigs fed a diet containing SDA could enhance tissues with improved fatty acid profiles including increased levels of SDA, EPA, and DHA.
Four test diets (Treatment 2, 3, 4, and 5) with SDA ethyl ester substituted for corn oil to provide 0.2, 0.4, 0.6 and 0.8% (w/w SDA active ingredient, as-is basis) were fed ad libitum to one pen of four pigs throughout the 35-day test period Table 4). All diets were fed in meal form. Treatment 6 was fed the same diet as Treatment 5, but for a duration of only 21 days.
All pigs were individually weighed at initiation of the acclimation and test period, and immediately prior to slaughter. Feed consumption per pen was recorded. Upon completion of the feeding period, pigs were slaughtered for tissue collection and carcass evaluation. Pigs were slaughtered using standard industry practices (electrical stunning, exsanguinations, scalding, dehairing and evisceration). Live weights prior to slaughter and hot carcass weights were recorded. The left side of each carcass was fabricated and samples were obtained from the loin (longissimus muscle), ham (semimembranosus muscle) and belly (a section from the center of the belly) for sensory evaluation, fatty acid, and proximate analysis. Prior to removing the sample for sensory and fatty and proximate analysis from the belly the firmness of the belly was evaluated using a flop test. At 24 hr postmortem fat thickness (10th rib), loin eye area (10th rib), visual color, firmness and marbling, Minolta color (L*a*b*), pH, and drip loss were measured.
In order to evaluate the fatty acid composition of pig tissues (loin, ham, skin, and belly), samples were stored at −80° C. until evaluation. After thawing, ˜22 g of fresh pig tissue was chopped into small pieces and thoroughly mixed before 10 g was sub sampled and lyophilized. Lyophilized samples were ground in 30 ml Sarstedt tubes with two ball bearings using a Mega Grinder. Ground samples (loin and ham: 50 mg; skin: 100 mg; belly: 150 mg; diet: 500 mg) were directly methylated with sulfuric acid in methanol (loin and ham: 1 mL; skin: 3 mL; belly: 10 mL; diet: 1.5 mL) sealed in the presence of butylated hydroxytoluene (50 mg BHT in 100 ml reagent) in reflux conditions of 90° C. Resultant fatty acid methyl esters (FAME's) were separated by capillary gas chromatography (GC) and detected by flame ionization detector (FID). The column used was a Supelco Omegawax 250 capillary column with dimensions of 30 m×0.25 mm×0.25 μm film thickness. The run time was 32 minutes. Peaks were identified based on their relative retention time compared to a FAME reference mixture. Quantification was achieved by using an internal standard (c15:0 triacylglyceride (TAG) for pig tissue samples and c17:0 TAG for diet samples). Results are reported as FA g/100 g fat with theoretical response correction.
For Table 6 below, each value represents g/100 g total fatty acids a mean of 4 samples (1 sample from each of 4 pigs) per treatment.

SMILES: CC/C=C\C/C=C\C/C=C\C/C=C\CCCCC(=O)O [SDA, stearidonic acid]
- 18:4 n-3, ham (SDA 0.6%, 35 Day): 3.56c mg FA/100 g of fresh tissue
- 20:1 n-9, ham (SDA 0.6%, 35 Day): 13.3 mg FA/100 g of fresh tissue
- 20:2 n-6, ham (SDA 0.6%, 35 Day): 6.1b mg FA/100 g of fresh tissue
- 20:3 n-3, ham (SDA 0.6%, 35 Day): 0.87 mg FA/100 g of fresh tissue
- 20:4 n-3, ham (SDA 0.6%, 35 Day): 5.85c mg FA/100 g of fresh tissue
- 20:4 n-6, ham (SDA 0.6%, 35 Day): 55.3 mg FA/100 g of fresh tissue
- 20:5 n-3, ham (SDA 0.6%, 35 Day): 11.32bc mg FA/100 g of fresh tissue
- 22:1 n-11, ham (SDA 0.6%, 35 Day): 0.58a mg FA/100 g of fresh tissue
- 22:5 n-3, ham (SDA 0.6%, 35 Day): 14.4bc mg FA/100 g of fresh tissue
- 22:6 n-3, ham (SDA 0.6%, 35 Day): 2.14 mg FA/100 g of fresh tissue
- Lipid content, ham (SDA 0.6%, 35 Day): 2.24%
- Total PUFA, ham (SDA 0.6%, 35 Day): 337.7 mg FA/100 g of fresh tissue
- Total monoenes, ham (SDA 0.6%, 35 Day): 1039 mg FA/100 g of fresh tissue
- Total n-3, ham (SDA 0.6%, 35 Day): 43.1b mg FA/100 g of fresh tissue
- Total n-6, ham (SDA 0.6%, 35 Day): 294.5 mg FA/100 g of fresh tissue
- Total saturates, ham (SDA 0.6%, 35 Day): 765.2 mg FA/100 g of fresh tissue
- n-3/n-6, ham (SDA 0.6%, 35 Day): 0.147
- 12:0, ham (SDA 0.8%, 21 Day): 2.2 mg FA/100 g of fresh tissue
- 14:0, ham (SDA 0.8%, 21 Day): 36.8 mg FA/100 g of fresh tissue
- 16:0, ham (SDA 0.8%, 21 Day): 701.1 mg FA/100 g of fresh tissue
- 16:1 n-7, ham (SDA 0.8%, 21 Day): 108.3 mg FA/100 g of fresh tissue
- 18:0, ham (SDA 0.8%, 21 Day): 358.1 mg FA/100 g of fresh tissue
- 18:1 n-7, ham (SDA 0.8%, 21 Day): 138.1 mg FA/100 g of fresh tissue
- 18:1 n-9, ham (SDA 0.8%, 21 Day): 1266.2 mg FA/100 g of fresh tissue
- 18:2 n-6, ham (SDA 0.8%, 21 Day): 290.7 mg FA/100 g of fresh tissue
- 18:3 n-3, ham (SDA 0.8%, 21 Day): 8.66 mg FA/100 g of fresh tissue
- 18:4 n-3, ham (SDA 0.8%, 21 Day): 3.67c mg FA/100 g of fresh tissue
- 20:1 n-9, ham (SDA 0.8%, 21 Day): 21.8 mg FA/100 g of fresh tissue
- 20:2 n-6, ham (SDA 0.8%, 21 Day): 11.3a mg FA/100 g of fresh tissue
- 20:3 n-3, ham (SDA 0.8%, 21 Day): 1.33 mg FA/100 g of fresh tissue
- 20:4 n-3, ham (SDA 0.8%, 21 Day): 7.23c mg FA/100 g of fresh tissue
- 20:4 n-6, ham (SDA 0.8%, 21 Day): 63.4 mg FA/100 g of fresh tissue
- 20:5 n-3, ham (SDA 0.8%, 21 Day): 9.68b mg FA/100 g of fresh tissue
- 22:1 n-11, ham (SDA 0.8%, 21 Day): 0.95ab mg FA/100 g of fresh tissue
- 22:5 n-3, ham (SDA 0.8%, 21 Day): 13.2bc mg FA/100 g of fresh tissue
- 22:6 n-3, ham (SDA 0.8%, 21 Day): 1.85 mg FA/100 g of fresh tissue
- Lipid content, ham (SDA 0.8%, 21 Day): 3.23%
- Total PUFA, ham (SDA 0.8%, 21 Day): 433.7 mg FA/100 g of fresh tissue
- Total monoenes, ham (SDA 0.8%, 21 Day): 1546 mg FA/100 g of fresh tissue
- Total n-3, ham (SDA 0.8%, 21 Day): 45.6b mg FA/100 g of fresh tissue
- Total n-6, ham (SDA 0.8%, 21 Day): 388.1 mg FA/100 g of fresh tissue
- Total saturates, ham (SDA 0.8%, 21 Day): 1104.4 mg FA/100 g of fresh tissue
- n-3/n-6, ham (SDA 0.8%, 21 Day): 0.121c
- 12:0, ham (SDA 0.8%, 35 Day): 1.04 mg FA/100 g of fresh tissue
- 14:0, ham (SDA 0.8%, 35 Day): 18.3 mg FA/100 g of fresh tissue
- 16:0, ham (SDA 0.8%, 35 Day): 386.7 mg FA/100 g of fresh tissue
- 16:1 n-7, ham (SDA 0.8%, 35 Day): 52.8 mg FA/100 g of fresh tissue
- 18:0, ham (SDA 0.8%, 35 Day): 206.6 mg FA/100 g of fresh tissue
- 18:1 n-7, ham (SDA 0.8%, 35 Day): 81.5 mg FA/100 g of fresh tissue
- 18:1 n-9, ham (SDA 0.8%, 35 Day): 685.9 mg FA/100 g of fresh tissue
- 18:2 n-6, ham (SDA 0.8%, 35 Day): 208.6 mg FA/100 g of fresh tissue
- 18:3 n-3, ham (SDA 0.8%, 35 Day): 4.70 mg FA/100 g of fresh tissue
- 18:4 n-3, ham (SDA 0.8%, 35 Day): 4.09c mg FA/100 g of fresh tissue
- 20:1 n-9, ham (SDA 0.8%, 35 Day): 9.9 mg FA/100 g of fresh tissue
- 20:2 n-6, ham (SDA 0.8%, 35 Day): 5.1b mg FA/100 g of fresh tissue
- 20:3 n-3, ham (SDA 0.8%, 35 Day): 0.62 mg FA/100 g of fresh tissue
- 20:4 n-3, ham (SDA 0.8%, 35 Day): 5.36bc mg FA/100 g of fresh tissue
- 20:4 n-6, ham (SDA 0.8%, 35 Day): 54.2 mg FA/100 g of fresh tissue
- 20:5 n-3, ham (SDA 0.8%, 35 Day): 14.69c mg FA/100 g of fresh tissue
- 22:1 n-11, ham (SDA 0.8%, 35 Day): 0.57a mg FA/100 g of fresh tissue
- 22:5 n-3, ham (SDA 0.8%, 35 Day): 14.2bc mg FA/100 g of fresh tissue
- 22:6 n-3, ham (SDA 0.8%, 35 Day): 2.35 mg FA/100 g of fresh tissue
- Lipid content, ham (SDA 0.8%, 35 Day): 1.88%
- Total PUFA, ham (SDA 0.8%, 35 Day): 330.6 mg FA/100 g of fresh tissue
- Total monoenes, ham (SDA 0.8%, 35 Day): 846 mg FA/100 g of fresh tissue
- Total n-3, ham (SDA 0.8%, 35 Day): 46.0b mg FA/100 g of fresh tissue
- Total n-6, ham (SDA 0.8%, 35 Day): 284.6 mg FA/100 g of fresh tissue
- Total saturates, ham (SDA 0.8%, 35 Day): 616.6 mg FA/100 g of fresh tissue
- n-3/n-6, ham (SDA 0.8%, 35 Day): 0.162
- Omega 3 fatty acid enrichment in belly, loin, ham and skin tissues as compared to the control (SDA fed for the last 35 days prior to slaughter): significant increase
- More DHA deposition with 35 days than with 21 days of SDA consumption (Treatment 5 (35 day) vs Treatment six (21 day), 0.8% SDA, ham): about 27%
